According to US9925238B2, “Use of peptide for treating angiogenesis-related diseases” (MacKay Memorial Hospital, priority 2014, dated 2018):

How the values were obtained:
C57BL/6 mice [1] = assay: Oxygen-induced retinopathy (OIR) retinal neovascularization model; type: in vivo, mouse; settings: FIGS. 9 and 10; for inhibition of angiogenesis (retinal neovascularization) in the OIR model: intravitreal injection at P12, eyes at P17, compared with PBS or scramble peptide, p<0.01
Protocol: The neonatal mouse (C57BL/6) pups of normoxia group (serving as control) were kept in room air until postnatal day 12 (P12), while the pups of OIR group were maintained with their nursing mothers for 5 days in 75% oxygen at P7 and then returned to room air (relative hypoxia) so as to generate oxygen-induced neovascularization at P12. 1 μl of Dsg2 peptide (25 μg), scramble peptide (25 μg) and Avastin (10 μg) were intravitreally injected into mouse eyes at P12, respectively. The animals were killed, and the mouse eyes were enucleated at P17.
Mouse eye cups were fixed in 4% paraformaldehyde for 2 hours. The retina was carefully separated from eye cup, and then incubated with fluorescein-labeled isolectin-B4 (Life technologies) at 4° C. overnight. Samples were coverslipped with Vectashield medium (Vector Laboratories), and the lectin labeling was examined by use of the 20× objective of a Zeiss LSM-510 confocal microscope. Fluorescence volume measurements were recorded by creating image stacks of optical slices within lesions with QWIN software. Values for implicit volume were designated as mean total surface area.

[2] = tested on: human umbilical vein endothelial cells (HUVECs); assay: Matrigel angiogenesis assay (tube formation) with HUVECs; type: cell-based; settings: FIGS. 5 and 6; for inhibition of angiogenesis of HUVEC cells on the Matrigel: 24 hours
Protocol: (§1) A total of 200 μl Matrigel was added into wells of a 24-well plate and polymerized for 30 minutes at 37° C. EPC suspensions containing various concentrations of Dsg2 peptide (0.25 mg/ml, 0.5 mg/ml, or 1 mg/ml), scramble peptide (1 mg/ml) or Avastin (10 μg/ml) were plated on the Matrigel-coated wells at a density of 5×10^4 cells (EPCs, or HUVECs) in MV2 medium containing 2% FBS for 24 hours at 37° C. in a 5% CO2 humidified incubator. Each sample was tested in triplicate in the same plate, and wells were photographed with a Leica camera (×40 magnification).
(§2) Tube length in relative to the control was quantified by measuring tubes in 5 randomly chosen fields from each well with QWIN software. Experiments were repeated more than three times. The values were expressed as the means±S.D. for the three independent experiments.

[3] = tested on: human endothelial progenitor cells (EPCs); assay: Matrigel angiogenesis assay (tube formation) with EPCs; type: cell-based; settings: for inhibition of angiogenesis in EPCs: FIGS. 3 and 4
Protocol: as §1, §2

C57BL/6 mice [4] = assay: Matrigel plug assay; type: in vivo, mouse; settings: 7 days
Protocol: 0.5 ml of growth factor-reduced liquid Matrigel respectively containing: (1) heparin (60 U/mL); (2) heparin (60 U/mL), VEGF (10 ng/ml), and PBS; (3) heparin (60 U/mL), VEGF (10 ng/ml), and scramble peptide (1 mg/ml); and (4) heparin (60 U/mL), VEGF (10 ng/ml), and Dsg2 peptide (1 mg/ml) were subcutaneously injecting into the skin near the abdominal midline of C57BL/6 mice. 7 days after injection, mice were euthanized, and Matrigel plugs were surgically removed and analyzed.
For macroscopic analysis of angiogenesis, hemoglobin content in Matrigel was measured with Drabkin reagent 525 (Sigma-Aldrich). Briefly, the Matrigel plug sample was re-liquefied by being place at 4° C. on ice with red cell lysis reagent for 24 hours. After brief centrifugation, 20 μl of supernatant was added to 100 μl of Drabkin solution. The mixture was allowed to stand 30 minute at room temperature, and the absorbance was measured at 540 nm. The obtained hemoglobin content was normalized to the plug weight and the value was expressed as μg hemoglobin/mg Matrigel plug.

## Bevacizumab [Avastin, reference compound]
C57BL/6 mice [1]
  inhibition of angiogenesis (retinal neovascularization) in the OIR model: significantly inhibited the angiogenesis
[2]
  inhibition of angiogenesis of HUVEC cells on the Matrigel: capable of inhibiting angiogenesis

## KINATDADEPNTLNSKISYRC (extra C-terminal cysteine; Dsg2-derived peptide) [Dsg2-derived short peptide, KR20 fragment conjugated with one extra cysteine residue]
[3]; 0.5 mg/ml (200 uM)
  inhibition of angiogenesis in EPCs: significantly inhibited angiogenesis
[3]; 1.0 mg/ml (400 uM)
  inhibition of angiogenesis in EPCs: significantly inhibited angiogenesis
[3]; 1.0 mg/ml (400 uM), p<0.05
  reduction of tube formation: more than 50%
  relative tube length in relative to the control group: less than 50%
C57BL/6 mice [1]; OIR model, intravitreal
  anti-angiogenic efficacy compared with Avastin: better than that of Avastin
C57BL/6 mice [1]
  inhibition of angiogenesis (retinal neovascularization) in the OIR model: significantly inhibited the angiogenesis
[2]
  inhibition of angiogenesis of HUVEC cells on the Matrigel: capable of inhibiting angiogenesis
[2]; HUVECs on Matrigel
  efficacy in inhibiting tube formation compared with Avastin: more effective than Avastin
C57BL/6 mice [4]; 1 mg/ml in plug with heparin and VEGF, compared with PBS or scramble peptide, FIG. 7
  formation of newly formed blood vessels in Matrigel plug: capable of inhibiting the formation of newly formed blood vessels
C57BL/6 mice [4]; 1 mg/ml in plug, vs plug containing PBS or scramble peptide, p<0.05, FIG. 8
  hemoglobin content of Matrigel plug: significantly lower

## IVSLEPAYPP (IP10) [fragment of the predicted EC2 domain of Dsg2 peptide]
[3]; fragments at 1.0 mg/ml, p<0.05, FIG. 2
  inhibition of angiogenesis (tube formation) of EPCs on Matrigel: can inhibit the angiogenesis
